What was measured:
Settings in all cases: incubation time: 72 h
[1] = tested on: DU-4475; assay: normalised response (% of control), CellTox Green; higher = less cell death (100 = DMSO, 0 = benzethonium chloride kill control)
Outline: (§1)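 For each plate, 0.1 % DMSO was set to 100 and a positive kill control to 0. Breast cancer cell lines (20 µl suspension) were seeded into 384-well plates already holding compound at 5 concentrations in 10-fold steps over a 10,000-fold range chosen per compound, and incubated for 72 h. CellTox Green fluorescence at 485/520 nm was read before CellTiter-Glo luminescence, which followed 10 min at room temperature. Each value is the normalised signal at one concentration.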

[2] = tested on: CAL-120; assay: as above
Outline: as §1

[3] = tested on: MDA-MB-468; assay: as above
Outline: as §1

[4] = tested on: MCF-10A; assay: as above
Outline: as §1

[5] = tested on: HCC1599; assay: normalised response (% of control), CellTiter-Glo; higher = more viable cells (100 = DMSO, 0 = benzethonium chloride kill control)
Outline: as §1

[6] = tested on: SK-BR-3; assay: as above
Outline: as §1

[7] = tested on: CAL-51; assay: as above
Outline: as §1

[8] = tested on: MDA-MB-231; assay: as above
Outline: as §1

[9] = tested on: HCC1143; assay: as above
Outline: as §1

[10] = tested on: BT-549; assay: as above
Outline: as §1

[11] = tested on: CAL-120; assay: as above
Outline: as §1

[12] = tested on: HCC1937; assay: as above
Outline: as §1

[13] = tested on: MDA-MB-436; assay: as above
Outline: as §1

[14] = tested on: Hs578T; assay: as above
Outline: as §1

[15] = tested on: MDA-MB-453; assay: as above
Outline: as §1

[16] = tested on: MDA-MB-468; assay: as above
Outline: as §1

[17] = tested on: BT-474; assay: as above
Outline: as §1

[18] = tested on: CAL-148; assay: as above
Outline: as §1

[19] = tested on: MCF-10A; assay: as above
Outline: as §1

[20] = tested on: MFM-223; assay: as above
Outline: as §1

[21] = tested on: CAL-85-1; assay: as above
Outline: as §1

[22] = tested on: HDQ-P1; assay: as above
Outline: as §1

| SMILES | normalised response [1] | normalised response [2] | normalised response [3] | normalised response [4] | normalised response [5] | normalised response [6] | normalised response [7] | normalised response [8] | normalised response [9] | normalised response [10] | normalised response [11] | normalised response [12] | normalised response [13] | normalised response [14] | normalised response [15] | normalised response [16] | normalised response [17] | normalised response [18] | normalised response [19] | normalised response [20] | normalised response [21] | normalised response [22] |
| --- | --- | --- | --- | --- | --- | --- | --- | --- | --- | --- | --- | --- | --- | --- | --- | --- | --- | --- | --- | --- | --- | --- |
| CCN(CC)CCOc1ccc(C(=C(Cl)c2ccccc2)c2ccccc2)cc1 [Clomifene] (1000 nM) | 99.3% | 99.7% | 68.9% | 80.3% | 92.7% | 101% | 95.2% | 99.2% | 102% | 95.5% | 102% | 93.8% | 104% | 94.3% | 94.2% | 103% | 98.5% | 106% | 101% | 100% | 94.2% | 95.9% |
| C[C@@H]1C[C@H]2[C@@H]3CCC4=CC(=O)C=C[C@]4(C)[C@@]3(F)[C@@H](O)C[C@]2(C)[C@@]1(O)C(=O)CO [Dexamethasone] (1000 nM) | 96% | 98.4% | 129% | 78.1% | 97.8% | 83.5% | 124% | 159% | 97.6% | 102% | 68.7% | 98.1% | 104% | 108% | 84.6% | 102% | 139% | 92.5% | 80.6% | 93.5% | 112% | 83.6% |
| CC(C)C(=O)Nc1ccc([N+](=O)[O-])c(C(F)(F)F)c1 [Flutamide] (1000 nM) | 99.8% | 102% | 144% | 97.9% | 111% | 93.9% | 93.2% | 101% | 100% | 103% | 94.7% | 96.2% | 98.1% | 100% | 99.7% | 96.9% | 103% | 99.9% | 99.3% | 99.8% | 93.5% | 101% |
| COc1cc2c(Oc3ccc(NC(=O)C4(C(=O)Nc5ccc(F)cc5)CC4)cc3F)ccnc2cc1OCCCN1CCOCC1 [Foretinib] (100 nM) | 101% | 101% | 97.5% | 111% | 89.8% | 107% | 99.5% | 87% | 93.8% | 114% | 93.9% | 98.1% | 110% | 96.1% | 85.6% | 105% | 92.3% | 102% | 95.1% | 75.7% | 98% | 95.5% |
| NC(=O)NO [Hydroxyurea] (10000 nM) | 103% | 95.1% | 81.7% | 99.2% | 111% | 110% | 45.2% | 103% | 105% | 90.8% | 95.7% | 98.4% | 97.7% | 109% | 114% | 107% | 92.7% | 101% | 109% | 105% | 98.2% | 100% |
| O=NN(CCCl)C(=O)NC1CCCCC1 [Lomustine] (1000 nM) | 99.4% | 103% | 128% | 96.9% | 128% | 94.6% | 112% | 98.5% | 98.1% | 107% | 100% | 102% | 104% | 101% | 113% | 104% | 101% | 95.3% | 105% | 98% | 94.1% | 102% |
| O=C(O)CC[C@H]1CC[C@@](c2cc(F)ccc2F)(S(=O)(=O)c2ccc(Cl)cc2)CC1 [MK-0752] (100 nM) | 107% | 101% | 165% | 114% | 109% | 109% | 113% | 104% | 108% | 91.6% | 95.6% | 98.5% | 104% | 103% | 108% | 107% | 98.7% | 95.4% | 109% | 109% | 92% | 95.6% |
| NC1(c2ccc(-c3nc4ccn5c(=O)[nH]nc5c4cc3-c3ccccc3)cc2)CCC1 [MK-2206] (100 nM) | 104% | 101% | 116% | 105% | 104% | 83.5% | 95.1% | 103% | 98.2% | 90.3% | 99.8% | 96.6% | 108% | 97.2% | 76.5% | 94.6% | 97.4% | 97% | 107% | 98.5% | 109% | 99.2% |
| NC(=O)c1cccc2cn(-c3ccc([C@@H]4CCCNC4)cc3)nc12 [MK-4827] (1000 nM) | 97.8% | 98.5% | 110% | 111% | 107% | 98.8% | 95.2% | 109% | 104% | 97.4% | 101% | 105% | 79.3% | 102% | 140% | 101% | 109% | 97.6% | 106% | 106% | 105% | 102% |
| O=C(c1cc(Cc2n[nH]c(=O)c3ccccc23)ccc1F)N1CCN(C(=O)C2CC2)CC1 [Olaparib] (1000 nM) | 99.7% | 97% | 122% | 101% | 101% | 92% | 98.5% | 88.7% | 94.8% | 94.9% | 92.3% | 95.6% | 75.2% | 97.5% | 132% | 91.8% | 87.6% | 83.1% | 92.3% | 101% | 101% | 96.6% |
| C[C@]12C=CC(=O)C=C1CC[C@@H]1[C@@H]2C(=O)C[C@@]2(C)[C@H]1CC[C@]2(O)C(=O)CO [Prednisone] (1000 nM) | 101% | 102% | 83.2% | 98.8% | 113% | 103% | 120% | 103% | 102% | 95.4% | 102% | 101% | 104% | 110% | 106% | 103% | 104% | 105% | 108% | 101% | 92.9% | 100% |
| CN1CCN(c2nc(C3=C(c4c[nH]c5ccccc45)C(=O)NC3=O)c3ccccc3n2)CC1 [Sotrastaurin] (1000 nM) | 99.8% | 102% | 215% | 108% | 115% | 90.9% | 122% | 108% | 92.5% | 101% | 93.7% | 96% | 102% | 101% | 102% | 91.6% | 105% | 88% | 95.3% | 91.6% | 121% | 93.5% |
| CC/C(=C(\c1ccccc1)c1ccc(OCCN(C)C)cc1)c1ccccc1 [Tamoxifen] (1000 nM) | 105% | 102% | 148% | 111% | 107% | 103% | 81.8% | 103% | 104% | 96.1% | 94.8% | 102% | 97.7% | 106% | 93.1% | 93.8% | 95.9% | 103% | 104% | 97.9% | 99.8% | 106% |
| COc1cc2c(N3CCN(C(=O)Nc4ccc(OC(C)C)cc4)CC3)ncnc2cc1OCCCN1CCCCC1 [Tandutinib] (100 nM) | 98% | 97.3% | 134% | 108% | 121% | 98.4% | 96.2% | 106% | 103% | 103% | 101% | 100% | 114% | 96.3% | 97.4% | 103% | 105% | 101% | 96.6% | 101% | 109% | 102% |
| C[C@@H](C(=O)O)c1ccc(-c2ccccc2)c(F)c1 [Tarenflurbil] (1000 nM) | 96.6% | 100% | 112% | 91.4% | 106% | 87.8% | 119% | 95% | 92.5% | 99.3% | 96.5% | 94.7% | 100% | 101% | 96% | 94.8% | 92% | 91.7% | 90.1% | 95% | 98.8% | 94.7% |
| Cn1nnc2c(C(N)=O)ncn2c1=O [Temozolomide] (1000 nM) | 100% | 103% | 106% | 89.5% | 116% | 92% | 76.4% | 93.3% | 98.1% | 101% | 99.3% | 93.9% | 104% | 91.7% | 100% | 91.8% | 95.4% | 97.6% | 104% | 94.8% | 99.4% | 98.8% |
| CC[C@@H]1C(=O)N(C)c2cnc(Nc3ccc(C(=O)N[C@H]4CC[C@H](N5CCN(CC6CC6)CC5)CC4)cc3OC)nc2N1C(C)C [Volasertib] (100 nM) | 93.2% | 89% | 85.1% | 24.1% | 45.6% | 16.1% | 23.7% | 48.5% | 50.5% | 25.9% | 64.4% | 81% | 50.1% | 54.6% | 77.3% | 36.5% | 63.6% | 53% | 58.5% | 42% | 53% | 76.6% |
